Read-outs that look alike come from different tables or passages of the source.
How the values were obtained:
[1] = target: T1, human δ receptors (Homo sapiens, UniProt P41143); assay: Binding assay, membranes of human 293S cells expressing cloned human δ receptors
T1 construct: expressed in transfected cells; host or cells: human 293S (HEK-293S) cells

[2] = target: T1, human δ receptors; assay: Human δ receptor functional assay (GTP[γ]35S binding, HEK-293S cell membranes); assay type: biochemical; conditions: for Emax: relative to standard δ agonist SNC80, receptors expressed at higher levels, read-out: Human δ % EMax (high)
Protocol: (§1) • A. Human 293S cells expressing cloned human κ, δ and μ receptors and neomycin resistance are grown in suspension at 37° C. and 5% CO2 in shaker flasks containing calcium-free DMEM10% FBS, 5% BCS, 0.1% Pluronic F-68, and 600 μg/ml geneticin. • B. Rat brains are weighed and rinsed in ice-cold PBS (containing 2.5 mM EDTA, pH 7.4). The brains are homogenized with a polytron for 30 sec (rat) in ice-cold lysis buffer (50 mM Tris, pH 7.0, 2.5 mM EDTA, with phenylmethylsulfonyl fluoride added just prior use to […] from a 0.5M stock in DMSO:ethanol). Membrane Preparation
Cells are pelleted and resuspended in lysis buffer (50 mM Tris, pH 7.0, 2.5 mM EDTA, with PMSF added just prior to use to 0.1 mM from a 0.1 M stock in ethanol), incubated on ice for 15 min, then homogenized with a polytron for 30 sec. The suspension is spun at 1000 g (max) for 10 min at 4° C. The supernatant is saved on ice and the pellets resuspended and spun as before. The supernatants from both spins are combined and spun at 46,000 g(max) for 30 min. The pellets are resuspended in cold Tris buffer (50 mM Tris/Cl, pH 7.0) and spun again. The final pellets are resuspended in membrane buffer (50 mM Tris, 0.32 M sucrose, pH 7.0). Aliquots (1 ml) in polypropylene tubes are frozen in dry ice/ethanol and stored at −70° C. until use. The protein concentrations are determined by a modified Lowry assay with sodium dodecyl sulfate.
(§2) The agonist activity of the compounds is measured by determining the degree to which the compounds receptor complex activates the binding of GTP to G-proteins to which the receptors are coupled. In the GTP binding assay, GTP[γ]^35S is combined with test compounds and membranes from HEK-293S cells expressing the cloned human opioid receptors or from homogenised rat and mouse brain. Agonists stimulate GTP[γ]^35S binding in these membranes. The EC50 and Emax values of compounds are determined from dose-response curves. Right shifts of the dose response curve by the delta antagonist naltrindole are performed to verify that agonist activity is mediated through delta receptors. For human δ receptor functional assays, EC50 (low) is measured when the human δ receptors used in the assay were expressed at lower levels in comparison with those used in determining EC50 (high). The Emax values were determined in relation to the standard δ agonist SNC80, i.e., higher than 100% is a compound that have better efficacy than SNC80.

[3] = target: T2, δ receptors in rat brain membranes (Rattus norvegicus, UniProt P33533); assay: Rat brain functional assay (GTPγ35S binding, rat brain membranes); assay type: biochemical; conditions: Table 1, relative to SNC80
T2 construct: Rat brain membranes are thawed at 37° C; from tissue; host or cells: rat brain homogenate membranes
Protocol: as §1, §2
Rat brain membranes are thawed at 37° C., passed 3 times through a 25-gauge blunt-end needle and diluted in the GTPγS binding (50 mM Hepes, 20 mM NaOH, 100 mM NaCl, 1 mM EDTA, 5 mM MgCl2, pH 7.4, Add fresh: 1 mM DTT, 0.1% BSA). 120 μM GDP final is added membranes dilutions. […] The basal and maximal stimulated binding are determined in absence and presence of 3 μM SNC-80

[4] = target: T3, human κ receptors (Homo sapiens, UniProt P41145); assay: Binding assay, membranes of human 293S cells expressing cloned human κ receptors
T3 construct: expressed in transfected cells; host or cells: human 293S cells
T3 sequence (P41145 whole entry): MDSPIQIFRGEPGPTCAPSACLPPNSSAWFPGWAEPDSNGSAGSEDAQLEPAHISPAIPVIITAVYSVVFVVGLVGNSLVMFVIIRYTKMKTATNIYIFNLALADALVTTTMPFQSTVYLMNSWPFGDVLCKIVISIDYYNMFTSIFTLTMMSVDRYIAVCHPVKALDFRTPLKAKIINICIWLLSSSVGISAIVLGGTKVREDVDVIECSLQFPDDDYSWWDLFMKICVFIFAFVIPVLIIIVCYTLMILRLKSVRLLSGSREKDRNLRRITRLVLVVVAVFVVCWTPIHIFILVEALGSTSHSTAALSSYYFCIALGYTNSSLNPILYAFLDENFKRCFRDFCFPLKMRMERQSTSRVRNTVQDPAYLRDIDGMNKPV

T2 sequence (P33533 whole entry): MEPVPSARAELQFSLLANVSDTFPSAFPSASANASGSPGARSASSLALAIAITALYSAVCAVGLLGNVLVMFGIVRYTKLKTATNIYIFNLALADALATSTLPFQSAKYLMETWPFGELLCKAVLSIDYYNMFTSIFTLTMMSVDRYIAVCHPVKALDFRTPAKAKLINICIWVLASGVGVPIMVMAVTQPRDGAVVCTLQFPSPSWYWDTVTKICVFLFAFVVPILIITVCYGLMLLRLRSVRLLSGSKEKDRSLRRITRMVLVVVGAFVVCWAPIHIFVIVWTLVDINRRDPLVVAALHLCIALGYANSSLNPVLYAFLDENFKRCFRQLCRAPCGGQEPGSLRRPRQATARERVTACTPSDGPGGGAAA
T1 sequence (P41143 whole entry): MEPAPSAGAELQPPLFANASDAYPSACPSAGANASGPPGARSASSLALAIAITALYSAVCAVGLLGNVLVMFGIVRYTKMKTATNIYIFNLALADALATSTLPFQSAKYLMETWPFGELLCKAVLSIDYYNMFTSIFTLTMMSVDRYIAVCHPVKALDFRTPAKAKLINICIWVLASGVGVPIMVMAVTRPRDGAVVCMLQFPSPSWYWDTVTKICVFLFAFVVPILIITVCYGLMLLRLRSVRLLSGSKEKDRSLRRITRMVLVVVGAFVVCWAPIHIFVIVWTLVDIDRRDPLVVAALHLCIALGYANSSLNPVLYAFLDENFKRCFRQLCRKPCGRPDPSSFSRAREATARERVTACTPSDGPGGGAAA

Work on `CCN(CC)C(=O)c1ccc([C@@H](c2cccc(NC(=O)OC)c2)N2CCN(Cc3ccco3)CC2)cc1` [Compound 7, S-Methyl 3-{{4-[(diethylamino)carbonyl]phenyl}[4-(2-furylmethyl)piperazin-1-yl]methyl}phenylcarbamate] yielded an IC50 [1] of 0.25 to 0.74 nM, an EC50 [2] of 0.55 to 1.93 nM and an Emax ([2]; Table 1) of 89 to 102%. For the same compound, the Emax [3] was 135 to 170%.

`CCN(CC)C(=O)c1ccc([C@H](c2cccc(NC(=O)OC)c2)N2CCN(Cc3ccco3)CC2)cc1` [Compound 8, R-Methyl 3-{{4-[(diethylamino)carbonyl]phenyl}[4-(2-furylmethyl)piperazin-1-yl]methyl}phenylcarbamate] showed an IC50 [1] of 0.25 to 0.74 nM, an EC50 [2] of 0.55 to 1.93 nM and an Emax ([2]; Table 1) of 89 to 102%. For the same compound, the Emax [3] was 135 to 170%.

Compound `CCN(CC)C(=O)c1ccc([C@H](c2cccc(NC(=O)OC)c2)N2CCN(Cc3ccoc3)CC2)cc1` [Compound 10, R-Methyl 3-{{4-[(diethylamino)carbonyl]phenyl}[4-(3-furylmethyl)piperazin-1-yl]methyl}phenylcarbamate] has an IC50 [1] of 0.25 to 0.74 nM, an EC50 [2] of 0.55 to 1.93 nM and an Emax ([2]; Table 1) of 89 to 102%. It also gave an Emax [3] of 135 to 170%.

`CCN(CC)C(=O)c1ccc([C@H](c2cccc(NC(=O)OC)c2)N2CCN(Cc3ncc[nH]3)CC2)cc1` [Compound 11, R-Methyl 3-{{4-[(diethylamino)carbonyl]phenyl}[4-(1H-imidazol-2-ylmethyl)piperazin-1-yl]methyl}phenylcarbamate] showed an IC50 ([1]; Table 1, displacement of radioactive δ receptor ligand, read-out: Human δ IC50) of 0.25 to 0.74 nM, an IC50 [4] of 247 to 1640 nM and an EC50 ([2]; Table 1, human δ receptors expressed at higher levels, read-out: Human δ EC50 (high)) of 0.55 to 1.93 nM. The Emax ([2]; Table 1) was 89 to 102% and the Emax [3] was 135 to 170%.

Work on `CCN(CC)C(=O)c1ccc([C@H](c2cccc(NC(=O)OC)c2)N2CCN(Cc3ccsc3)CC2)cc1` [Compound 6, R-Methyl 3-{{4-[(diethylamino)carbonyl]phenyl}[4-(thien-3-ylmethyl)piperazin-1-yl]methyl}phenylcarbamate] yielded an IC50 [1] of 0.25 to 0.74 nM, an EC50 [2] of 0.55 to 1.93 nM and an Emax ([2]; Table 1) of 89 to 102%. For the same compound, the Emax [3] was 135 to 170%.

Compound `CCN(CC)C(=O)c1ccc([C@@H](c2cccc(NC(=O)OC)c2)N2CCN(Cc3cccs3)CC2)cc1` [Compound 3, S-Methyl 3-{{4-[(diethylamino)carbonyl]phenyl}[4-(thien-2-ylmethyl)piperazin-1-yl]methyl}phenylcarbamate] has an IC50 [1] of 0.25 to 0.74 nM, an EC50 [2] of 0.55 to 1.93 nM and an Emax ([2]; Table 1) of 89 to 102%. It also gave an Emax [3] of 135 to 170%.

Compound `CCN(CC)C(=O)c1ccc([C@@H](c2cccc(NC(=O)OC)c2)N2CCN(Cc3ccoc3)CC2)cc1` [Compound 9] has an IC50 [1] of 0.25 to 0.74 nM, an EC50 [2] of 0.55 to 1.93 nM and an Emax ([2]; Table 1) of 89 to 102%. It also gave an Emax [3] of 135 to 170%.

With `CCN(CC)C(=O)c1ccc([C@@H](c2cccc(NC(=O)OC)c2)N2CCN(Cc3ccccc3)CC2)cc1` [Compound 2, S-Methyl 3-[(4-[(diethylamino)carbonyl]phenyl)(4-benzyl-piperazin-1-yl)methyl]phenylcarbamate] the IC50 [1] was 0.25 to 0.74 nM, the EC50 [2] was 0.55 to 1.93 nM and the Emax ([2]; Table 1) was 89 to 102%. For the same compound, the Emax [3] was 135 to 170%.

`CCN(CC)C(=O)c1ccc([C@@H](c2cccc(NC(=O)OC)c2)N2CCN(Cc3ccsc3)CC2)cc1` [Compound 5, S-Methyl 3-{{4-[(diethylamino)carbonyl]phenyl}[4-(thien-3-ylmethyl)piperazin-1-yl]methyl}phenylcarbamate] showed an IC50 [1] of 0.25 to 0.74 nM, an EC50 [2] of 0.55 to 1.93 nM and an Emax ([2]; Table 1) of 89 to 102%. For the same compound, the Emax [3] was 135 to 170%.

In the case of `CCN(CC)C(=O)c1ccc([C@H](c2cccc(NC(=O)OC)c2)N2CCN(Cc3ccccc3)CC2)cc1` [Compound 1, R-Methyl 3-[(4-[(diethylamino)carbonyl]phenyl)(4-benzyl-piperazin-1-yl)methyl]phenylcarbamate], the IC50 [1] is reported as 0.25 to 0.74 nM, the EC50 [2] is reported as 0.55 to 1.93 nM and the Emax ([2]; Table 1) is reported as 89 to 102%. For the same compound, the Emax [3] was 135 to 170%.

`CCN(CC)C(=O)c1ccc([C@H](c2cccc(NC(=O)OC)c2)N2CCN(Cc3cccs3)CC2)cc1` [Compound 4, R-Methyl 3-{{4-[(diethylamino)carbonyl]phenyl}[4-(thien-2-ylmethyl)piperazin-1-yl]methyl}phenylcarbamate] was tested, and the IC50 [1] was 0.25 to 0.74 nM, the EC50 [2] was 0.55 to 1.93 nM and the Emax ([2]; Table 1) was 89 to 102%. The Emax [3] was 135 to 170%.
